# Laboratory results published in publication PMC11284800 (Journal of Medicinal Chemistry, 2024).
# Where “and” joins values, the source holds several entries; their conditions need not be identical. Identical values can stand only once. Like-named read-outs stand apart in the source and are kept apart here.
# Key:
# CB2R-HEK293TR = target: T1, CB2R-HEK293TR (Homo sapiens, UniProt P34972); test: Live cell confocal imaging, CB2R-HEK293TR cells; assay type: cell-based; conditions: 250 nM probe, induced CB2R expression
# T1 construct: expressed in transfected cells; host or cells: HEK293TR (tetracycline-inducible)
# T1 sequence (P34972 whole entry): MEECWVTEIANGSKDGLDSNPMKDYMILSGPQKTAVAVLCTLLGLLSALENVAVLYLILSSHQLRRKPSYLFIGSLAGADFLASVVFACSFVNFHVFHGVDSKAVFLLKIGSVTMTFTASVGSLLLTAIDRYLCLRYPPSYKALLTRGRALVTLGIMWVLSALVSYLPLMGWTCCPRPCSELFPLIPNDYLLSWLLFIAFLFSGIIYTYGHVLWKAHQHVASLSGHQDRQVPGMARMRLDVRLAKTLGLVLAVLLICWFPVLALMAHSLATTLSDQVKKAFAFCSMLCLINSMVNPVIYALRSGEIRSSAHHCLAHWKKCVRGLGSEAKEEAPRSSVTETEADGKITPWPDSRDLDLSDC
# Description: (§1) Cells were plated onto a 384-well microplate (PhenoPlate, Revvity), at a density of 3500 cells/well (40 μL) with 1 μg/mL tetracycline for receptor-inducible expression and incubated for 48 h. The cell nuclei were stained using 0.9 μM Hoechst 33342 for 1 h incubation. After replacement of medium to serum-free conditions without Phenol red (20 μL), fluorescent probes were added (10 μL) and tested at 250 nM concentration. In case of blocking experiments, nuclei-stained cells were incubated with inhibitors (5 μM) for 30 min under serum-free conditions before probe administration. Confocal live cell imaging was performed using the Opera Phenix High Content Screening System (Revvity) at 22 °C. The probe fluorescence was monitored by kinetic measurements of 10 min with a break for probe administration. The fluorescence of one image per sample was captured using a water immersion objective (63×, NA 1.15, field of view 0.21 × 0.21 mm) at each time point. Probe detection was realized using the appropriate laser for excitation and filter for fluorescence emission. Image acquisition parameters, including laser power, offset, and gain settings, were kept constant.
# [1] = Photophysical characterization in PBS; assay type: physicochemical; conditions: PBS pH 7.4
# human CB2R = target: T2, human CB2R (Homo sapiens, UniProt P34972); test: [3H]CP55,940 displacement assay on CHO membranes, CB2R; assay type: binding
# T2 construct: host or cells: CHO-K1 (CHOK1hCB2_bgal)
# T2 sequence (P34972 whole entry): as above
# [2] = target: T3, human CB1R on live SNAP-CB1R-HEK293TR cells (Homo sapiens, UniProt P21554); assay type: cell-based; conditions: 250 nM probe
# T3 construct: expressed in transfected cells; host or cells: HEK293TR (tetracycline-inducible)
# T3 sequence (P21554 91-472): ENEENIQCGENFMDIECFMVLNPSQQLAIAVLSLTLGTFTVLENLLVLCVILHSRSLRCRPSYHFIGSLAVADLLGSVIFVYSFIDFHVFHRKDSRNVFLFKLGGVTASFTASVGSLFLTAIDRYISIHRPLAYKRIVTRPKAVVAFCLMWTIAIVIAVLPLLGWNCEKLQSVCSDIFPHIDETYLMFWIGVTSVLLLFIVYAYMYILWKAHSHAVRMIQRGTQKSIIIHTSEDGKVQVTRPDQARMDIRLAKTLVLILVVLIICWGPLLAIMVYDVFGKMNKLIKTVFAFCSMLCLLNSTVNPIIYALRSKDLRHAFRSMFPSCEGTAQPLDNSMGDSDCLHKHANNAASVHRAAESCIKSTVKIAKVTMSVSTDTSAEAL
# Description: (§2) Human CB1R HEK293TR cells (same transfected cell line as for TR-FRET binding assay was used, see above) were maintained in a humidified environment at 37 °C and 5% CO2 in DMEM with 10% FBS containing blasticidin (5 μg/mL; Invitrogen) and (Zeocin; 20 μg/mL; Invitrogen).
# as §1, with “Cells were plated onto a 384-well microplate (PhenoPlate, Revvity), at a density of 3500 cells/well (40 μL) with 1 μg/mL tetracycline for receptor-inducible expression and incubated for 48 h.” left out
# [3] = tested on: human CB1R on live SNAP-CB1R-HEK293TR cells; assay type: cell-based
# Description: as §2
# as §1, with “Cells were plated onto a 384-well microplate (PhenoPlate, Revvity), at a density of 3500 cells/well (40 μL) with 1 μg/mL tetracycline for receptor-inducible expression and incubated for 48 h.” left out
# hCB1R [4] = target: T4, hCB1R (Homo sapiens, UniProt P21554); test: TR-FRET fluorescent ligand binding (saturation and kinetics), HEK293TR-hCB1R cell membranes; parameters: a truncated CB1R variant, CB1R91-472 was used to facilitate the FRET; expressed in transfected cells; host or cells: HEK293TR (tetracycline-inducible, pcDNA4/TO)
# Target sequence in this assay (P21554 91-472): as above
# hCB1R [5] = target: T4, hCB1R; test: HTRF cAMP assay, antagonist mode (forskolin with CP55,940)
# Target sequence in this assay (P21554 whole entry, the tested form may be a part): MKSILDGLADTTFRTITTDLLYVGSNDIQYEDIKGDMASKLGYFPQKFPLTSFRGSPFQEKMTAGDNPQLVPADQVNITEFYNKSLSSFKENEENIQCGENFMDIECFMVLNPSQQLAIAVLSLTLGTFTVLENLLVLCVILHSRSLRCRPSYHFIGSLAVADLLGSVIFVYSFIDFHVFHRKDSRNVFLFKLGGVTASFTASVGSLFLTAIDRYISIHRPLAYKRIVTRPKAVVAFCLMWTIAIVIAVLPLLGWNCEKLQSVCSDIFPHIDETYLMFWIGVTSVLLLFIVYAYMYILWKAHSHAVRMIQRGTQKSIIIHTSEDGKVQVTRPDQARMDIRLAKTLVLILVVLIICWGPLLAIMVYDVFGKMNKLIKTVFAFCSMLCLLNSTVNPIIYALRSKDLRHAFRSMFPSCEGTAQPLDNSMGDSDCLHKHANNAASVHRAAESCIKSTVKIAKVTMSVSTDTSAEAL
# Description: The homogeneous time-resolved fluorescence (HTRF) cAMP assay was conducted following the manufacturer’s protocol for the cAMP-Gs Dynamic kit. […] After 15 min, reactions were stopped by the 1× cAMP-d2 conjugate in lysis buffer (5 μL/well), followed by 1× anti-cAMP cryptate conjugate in lysis buffer (5 μL/well). Following a 1 h incubation at room temperature, the plates were read in a Revvity Envision reader for time-resolved fluorescence resonance energy transfer detection at 620 and 665 nm. The HTRF ratio versus compound concentrations was plotted using Prism 8.1 (GraphPad). HTRF ratio = (signal 665 nm/signal 620 nm) × 10^4.
# hCB1R [6] = target: T4, hCB1R; test: [3H]CP55,940 displacement assay on CHO membranes, CB1R; assay type: binding; parameters: host or cells: CHO-K1 (CHOK1hCB1_bgal)
# Target sequence in this assay (P21554 whole entry, the tested form may be a part): as above
# hCB1R [7] = target: T4, hCB1R; test: HTRF cAMP assay, agonist / inverse agonist mode; assay type: cell-based; parameters: expressed in transfected cells; host or cells: CHO
# Target sequence in this assay (P21554 whole entry, the tested form may be a part): as above
# hCB1R [8] = conditions: cited from earlier work
# hCB2R = target: hCB2R; parameters: method as in PMID 29314831; conditions: cited from earlier work
# mCB1R = conditions: at 1 μM; cited from earlier work
# rCB1R = conditions: cited from earlier work
# [9] = fluorescent probe, direct association kinetics
structure (smiles),measurement,setting,value
CCC(CC)(NC(=O)c1cc(-c2cc(C(F)(F)F)ccc2C(F)(F)F)n(C[C@H]2CCCO2)c1C)C(=O)NCCOCCOCCNC(=O)c1ccc2c(c1)C(=O)OC21c2ccc(N(C)C)cc2Oc2cc(N(C)C)ccc21 [Compound 29],Staining of CB2R-HEK293TR cells,CB2R-HEK293TR,no staining
same,Abs (absorbance maximum),[1],555 nm
same,Em (emission maximum),[1],585 nm
same,QY (quantum yield),[1],36.60% and 37%
same,hCB2R % displacement at 10 µM,"human CB2R; [3H]CP55,940 displacement at 10 µM compound, ± SEM",18 ± 5%
same,Ki,"human CB2R; read-out: hCB2R Ki, [3H]CP55,940 displacement, CHO membranes stably expressing human CB2R, means of three experiments",> 10 µM
same,Staining of CB1R on induced CB1R-HEK293TR cells,[2]; confocal microscopy,selectively stain and visualize CB1R
same,Time to staining of CB1R,[2]; induced CB1R-HEK293TR cells,≤ 10 min
same,Staining of uninduced CB1R-HEK293TR cells,"[3]; 250 nM probe, no CB1R expression",no staining
same,Passive permeation of outer cell membrane,[3]; concluded from intracellular staining in live CB1R-HEK293TR cells,able to passively permeate the outer cell membrane
same,koff,hCB1R [4]; [9],0.00433 s⁻¹
same,kon,hCB1R [4]; [9],13500 M⁻¹ s⁻¹
same,residence time,"hCB1R [4]; fluorescent probe, read-out: RT (residence time)",3.85 min
same,Kd,"hCB1R [4]; read-out: kinetic KD, fluorescent probe",365 nM
same,Kd,"hCB1R [4]; read-out: saturation binding KD, TR-FRET saturation binding after 60 min",335 nM
same,Antagonist activity (cAMP assay) pEC50 or pIC50 ± SEM,"hCB1R [5]; antagonist mode, n.a. is no activity",5.7 ± 0.16
same,Emax,hCB1R [5]; read-out: Variation of Emax,-88%
same,hCB1R pKi ± SEM,"hCB1R [6]; [3H]CP55,940 displacement, CHO membranes",5.68 ± 0.29
same,Ki(CB2R)/Ki(CB1R),hCB1R [6]; radioligand binding Ki ratio,> 4.8
same,Ki,"hCB1R [6]; read-out: hCB1R Ki, [3H]CP55,940 displacement, CHO membranes stably expressing human CB1R, means of three experiments",2080 nM
same,Emax,hCB1R [7],-64%
same,Functional activity at CB1R (in words),hCB1R [7]; CB1R cAMP HTRF assay,inverse agonists
same,Functional activity CB1R (cAMP assay) pEC50 or pIC50 ± SEM,"hCB1R [7]; inverse agonists, n.a. is no activity",6.99 ± 0.09
same,IC50,"hCB1R [7]; read-out: Functional activity (cAMP assay) IC50, cells stably expressing hCB1R, HTRF cAMP, inverse agonists, n.a. denotes no activity",102 nM
CCCCCCC(C)(C)c1cc(O)c2c(c1)OC(C)(C)[C@@H]1CC=C(CNC(=O)CCCCCNC(=O)c3ccc(-c4c5ccc(=N)c(S(=O)(=O)O)c-5oc5c(S(=O)(=O)O)c(N)ccc45)c(C(=O)O)c3)C[C@@H]21 [HU210-Alexa488],Ki,hCB1R [8],27 ± 4 nM
same,Ki,hCB2R,800 ± 200 nM
Cc1c(C(=O)NN2CCCCC2)nn(-c2ccc(Cl)cc2Cl)c1-c1ccc(-c2ccc(CCCNC(=O)c3ccc4c(c3)C(=O)OC43c4ccc(N(C)C)cc4Oc4cc(N(C)C)ccc43)cc2)cc1 [Compound T1117],Ki(mCB1R): displacement,mCB1R,10%
same,Kd,rCB1R,460 ± 80 nM
